From patent US20190307729A1, “ANTIMICROBIAL COMPOUNDS AND METHODS FOR USE THEREOF” (VERSITECH LIMITED, priority 2016, published 2019) come the findings set out here.

Read-outs that look alike come from different tables or passages of the source.

The test system of this assay is S. aureus Mu3. Description: Secondary screening of compound 13 analogues in combination with gentamicin (growth by OD 595 nm). Particulars: for 20 μM + 200 μg/ml Gentamicin Growth inhibition Percentage: 20 μM compound + 200 μg/ml gentamicin; for inhibition at 50 µM / activity at 5 µM / activity at 20 µM / activity at 50 µM / inhibition at 20 µM: Staphylococcus aureus; for activity at 5 µM / activity at 20 µM / activity at 50 µM: MU3, 16 h; for 50 μM + 200 μg/ml Gentamicin Growth inhibition Percentage: 50 μM compound + 200 μg/ml gentamicin.

[1] abbreviates: [Cpd] 5 μM, BHI only (no gentamicin), relative to DMSO = 1.
[2] abbreviates: [Cpd] 5 μM, [Genta] 100 ug/ml, relative to DMSO = 1.
Setting [3] is: [Cpd] 5 μM, [Genta] 200 ug/ml, relative to DMSO = 1.
[4] abbreviates: [Cpd] 20 μM, BHI only (no gentamicin), relative to DMSO = 1.
[5] abbreviates: [Cpd] 20 μM, [Genta] 100 ug/ml, relative to DMSO = 1.
Where [6] appears, read: [Cpd] 20 μM, [Genta] 200 ug/ml, relative to DMSO = 1.
The mark [7] stands for this setting: [Cpd] 50 μM, BHI only (no gentamicin), relative to DMSO = 1.
Setting [8] is: [Cpd] 50 μM, [Genta] 100 ug/ml, relative to DMSO = 1.
[9] abbreviates: [Cpd] 50 μM, [Genta] 200 ug/ml, relative to DMSO = 1.
[10] abbreviates: MU3, read-out: 50 μM + 200 μg/ml Gentamicin Growth inhibition Percentage, 50 μM compound + 200 μg/ml gentamicin, S. aureus Mu3.
Where [11] appears, read: MU3, read-out: 20 μM + 200 μg/ml Gentamicin Growth inhibition Percentage.
Setting [12] is: MU3, read-out: 50 μM + 200 μg/ml Gentamicin Growth inhibition Percentage.
[13] abbreviates: read-out: relative growth, [Cpd] 5 μM, BHI only (no gentamicin), relative to DMSO = 1.
[14] abbreviates: read-out: relative growth, [Cpd] 20 μM, BHI only (no gentamicin), relative to DMSO = 1.
Setting [15] is: read-out: relative growth, [Cpd] 50 μM, BHI only (no gentamicin), relative to DMSO = 1.

Description: All screening is done in 384-well polystyrene microtiter plates (Greiner Bio-One). Overnight culture of Mu3 is washed with BHI medium 3 times, diluted and plated to give 5×10^5 CFU/mL per well. The plates are incubated at 37° C. for 16 hours and growth is monitored by optical density reading at 595 nm using an automated DTX 880 multimode detector. Screening using BHI medium is designated as the background screen. […] Sub MIC concentration of antibiotics is selected for screening. BHI containing a final concentration for gentamicin 156.25 μg/mL is used correspondingly for individual experiments. […] Screening results with various antibiotics is normalized with the background screening to calculate the percentage of growth inhibition.
Identical experimental procedures are performed as primary screening procedures, except different concentrations of selected compound are tested.
Secondary like screening was performed with different concentrations of each analogue compounds were tested with different gentamicin concentration, 50 μM, 20 μM and 5 μM compound concentration were used against, BHI containing, 0 μg/ml, 100 μg/ml and 200 μg/ml gentamicin.

In the case of `O=C(O)CN1C(=O)/C(=C/c2ccccc2)SC1=S` [Compound 1], the relative growth is, setting by setting: under setting [1], 1.38; under setting [2], 1.29; under setting [3], 1.45; under setting [4], 1.22; under setting [5], 1.1; under setting [6], 1.05. Also, the relative growth under setting [7] amounted to 1, the relative growth under setting [8] came to 1.11 and the relative growth under setting [9] was 1.01.
Take `COC(=O)c1ccccc1` [Compound 2]: the “20 μM + 200 μg/ml Gentamicin Growth inhibition Percentage” value (S. aureus Mu3, 20 µM) turned out to be 35%. In addition, under setting [10], the inhibition at 50 µM was 76%. Moreover, the relative growth under setting [1] was found to be 1.15; the relative growth under setting [2] was found to be 1.1; the relative growth under setting [3] was 1.2; the relative growth under setting [4] is reported as 1.08; the relative growth under setting [5] is 0.93; the relative growth under setting [6] amounted to 0.65. The relative growth was 1.07 under setting [7], 0.62 under setting [8] and “*0.24” under setting [9].
As to `COc1cc(/C=C2\SC(=S)N(CC(=O)O)C2=O)ccc1OCc1ccc(Cl)cc1` [Compound 6], for the setting “read-out: relative growth”, the activity at 5 µM was found to be 120%. Besides, under “read-out: relative growth”, the activity at 20 µM came to 114%. The activity at 50 µM (read-out: relative growth) is 79%. Besides, the inhibition at 20 µM under setting [11] was 90%. The inhibition at 50 µM under setting [12] was found to be 89%. The relative growth under setting [2] is on record as 1.13; the relative growth under setting [3] came out at 1.11; the relative growth under setting [5] amounted to 0.61; the relative growth entry under setting [6] is “*0.1”; the relative growth entry under setting [8] was “*0.2”; the relative growth result under setting [9] is listed as “*0.11”.
As to `COc1ccc(/C=C2\SC(=S)N(CC(=O)O)C2=O)cc1OCc1ccc(Cl)cc1` [Compound 15], the activity at 5 µM (read-out: relative growth) stood at 102%. The activity at 20 µM (read-out: relative growth) was found to be 97%. For the setting “read-out: relative growth”, the activity at 50 µM was determined as 79%. Moreover, under setting [11], the inhibition at 20 µM was 91%. For the same compound, the inhibition at 50 µM under setting [12] came out at 89%. Besides, the relative growth reads like this: under setting [2], 1.01; under setting [3], 1; under setting [5], 0.52; under setting [6], “*0.09”; under setting [8], “*0.18”; under setting [9], “*0.11”.
`COc1ccc(/C=C2\SC(=S)N(CC(=O)O)C2=O)cc1OCc1ccc(Cl)cc1Cl` [Compound 18]: the activity at 5 µM (read-out: relative growth) is 98%. Also, for the setting “read-out: relative growth”, the activity at 20 µM was found to be 85%. In addition, the activity at 50 µM (read-out: relative growth) was 97%. The inhibition at 20 µM under setting [11] was found to be 24%. The inhibition at 50 µM under setting [12] amounted to 30%. Also, the relative growth under setting [2] came to 0.97; the relative growth under setting [3] was determined as 0.9; the relative growth under setting [5] turned out to be 0.8; the relative growth under setting [6] was determined as 0.76; the relative growth under setting [8] came out at 0.88; the relative growth under setting [9] is 0.7.
Take `COc1cc(/C=C2\SC(=S)N(CC(=O)O)C2=O)ccc1OCc1ccccc1` [Compound 22]: the activity at 5 µM (read-out: relative growth) amounted to 108%. Under “read-out: relative growth”, the activity at 20 µM is 101%. In addition, the activity at 50 µM (read-out: relative growth) turned out to be 94%. In addition, under setting [11], the inhibition at 20 µM was 12%. The inhibition at 50 µM under setting [12] came out at 48%. In addition, the relative growth amounted to 1.08 under setting [2]; 1.05 under setting [3]; 0.99 under setting [5]; 0.88 under setting [6]; 0.91 under setting [8]; 0.52 under setting [9].
In the case of `COc1ccc(/C=C2\SC(=S)N(CC(=O)O)C2=O)cc1OCc1ccccc1` [Compound 24], the activity at 5 µM (read-out: relative growth) is 96%. Moreover, where the note is “read-out: relative growth”, the activity at 20 µM amounted to 93%. Further, the activity at 50 µM (read-out: relative growth) was 92%. The inhibition at 20 µM under setting [11] was determined as 27%. Under setting [12], the inhibition at 50 µM is 68%. Further, the relative growth under setting [2] was 0.94; the relative growth under setting [3] was determined as 0.95; the relative growth under setting [5] came to 0.92; the relative growth under setting [6] amounted to 0.73; the relative growth under setting [8] was 0.72; the relative growth entry under setting [9] was “*0.32”.
With `COc1cc(/C=C2\SC(=S)N(CC(=O)O)C2=O)ccc1OCc1ccccc1F` [Compound 25], where the note is “read-out: relative growth”, the activity at 5 µM is 96%. Also, for the setting “read-out: relative growth”, the activity at 20 µM came to 91%. Also, the activity at 50 µM (read-out: relative growth) was found to be 95%. The inhibition at 20 µM under setting [11] turned out to be 38%. Further, under setting [12], the inhibition at 50 µM came to 58%. The relative growth was 0.95 under setting [2]; 0.92 under setting [3]; 0.89 under setting [5]; 0.62 under setting [6]; 0.91 under setting [8]; 0.42 under setting [9].
On to `COC(=O)c1ccccc1` [Compound 29], for which the “20 μM + 200 μg/ml Gentamicin Growth inhibition Percentage” value (S. aureus Mu3, 20 µM) is recorded as 61%. Under “S. aureus Mu3, 50 µM”, the “50 μM + 200 μg/ml Gentamicin Growth inhibition Percentage” value was 92%. In addition, the activity at 5 µM under setting [13] came out at 96%. Also, the activity at 20 µM under setting [14] worked out at 90%. Besides, the activity at 50 µM under setting [15] is 89%. For the same compound, the relative growth under setting [2] was 0.94; the relative growth under setting [3] is 0.89; the relative growth under setting [5] is given as 0.67; the relative growth result under setting [6] was “*0.39”; the relative growth entry under setting [8] is on record as “*0.11”; the relative growth entry under setting [9] is recorded as “*0.08”.
Regarding `CCOc1ccc(/C=C2\SC(=S)N(CC(=O)O)C2=O)cc1` [Compound 31], for the setting “read-out: relative growth”, the activity at 5 µM came to 99%. In addition, for the setting “read-out: relative growth”, the activity at 20 µM came to 96%. For the same compound, the activity at 50 µM (read-out: relative growth) is 98%. In addition, the inhibition at 20 µM under setting [11] turned out to be 23%. In addition, under setting [12], the inhibition at 50 µM amounted to 39%. Also, the relative growth under setting [2] was found to be 0.98; the relative growth under setting [3] was 0.95; the relative growth under setting [5] was 0.98; the relative growth under setting [6] is recorded as 0.77; the relative growth under setting [8] was 0.98; the relative growth under setting [9] is 0.61.
`CCOc1cc(/C=C2\SC(=S)N(CC(=O)O)C2=O)ccc1OCc1ccc(Cl)c(Cl)c1` [Compound 34]: the activity at 5 µM (read-out: relative growth) was found to be 112%. The activity at 20 µM (read-out: relative growth) was 109%. In addition, for the setting “read-out: relative growth”, the activity at 50 µM was 113%. Moreover, the inhibition at 20 µM under setting [11] amounted to 67%. For the same compound, the inhibition at 50 µM under setting [12] was determined as 43%. The relative growth reads like this: under setting [2], 0.9; under setting [3], “*0.24”; under setting [5], 0.67; under setting [6], “*0.33”; under setting [8], 1.16; under setting [9], 0.57.
With `COc1cc(/C=C2\SC(=S)N(CC(=O)O)C2=O)ccc1OCc1ccc(Br)cc1` [Compound 44], where the note is “read-out: relative growth”, the activity at 5 µM amounted to 103%. Moreover, the activity at 20 µM (read-out: relative growth) was 103%. Besides, under “read-out: relative growth”, the activity at 50 µM worked out at 98%. The inhibition at 20 µM under setting [11] came out at 17%. Further, the inhibition at 50 µM under setting [12] turned out to be 53%. The relative growth is 1.02 under setting [2]; 0.83 under setting [3]; 0.99 under setting [5]; 0.83 under setting [6]; 0.97 under setting [8]; 0.47 under setting [9].
Regarding `COc1cc(C=C2SC(=S)N(CC(=O)O)C2=O)ccc1OCc1ccc(F)cc1Cl` [Compound 50], the “20 μM + 200 μg/ml Gentamicin Growth inhibition Percentage” value (S. aureus Mu3) was 36%. In addition, where the note is “S. aureus Mu3”, the “50 μM + 200 μg/ml Gentamicin Growth inhibition Percentage” value was determined as 40%. Moreover, the relative growth under setting [1] is reported as 0.93; the relative growth under setting [2] worked out at 0.91; the relative growth under setting [3] stood at 0.87; the relative growth under setting [4] was found to be 0.82; the relative growth under setting [5] turned out to be 0.82; the relative growth under setting [6] came out at 0.64. Further, the relative growth is given as 0.96 under setting [7], 0.9 under setting [8] and 0.6 under setting [9].
Consider `COCc1ccccc1` [Compound 52], for which the activity at 5 µM under setting [13] stood at 95%. Besides, the activity at 20 µM under setting [14] came to 86%. Further, the activity at 50 µM under setting [15] came to 76%. The inhibition at 20 µM (MU3, read-out: 20 μM + 200 μg/ml Gentamicin Growth inhibition Percentage, 20 μM compound + 200 μg/ml gentamicin, S. aureus Mu3) worked out at 31%. Under setting [10], the inhibition at 50 µM is 64%. In addition, the relative growth is reported as 0.96 under setting [2]; 0.93 under setting [3]; 0.89 under setting [5]; 0.69 under setting [6]; 0.74 under setting [8]; “*0.36” under setting [9].
For the compound `CC(C(=O)O)N1C(=O)/C(=C/c2ccc(Cl)cc2)SC1=S` (stereo not shown) [Compound 53], where the note is “read-out: relative growth”, the activity at 5 µM was found to be 93%. The activity at 20 µM (read-out: relative growth) was 89%. Also, the activity at 50 µM (read-out: relative growth) worked out at 88%. The inhibition at 20 µM under setting [11] was 24%. The inhibition at 50 µM under setting [12] is 62%. The relative growth runs as follows: under setting [2], 0.92; under setting [3], 0.89; under setting [5], 0.9; under setting [6], 0.76; under setting [8], 0.84; under setting [9], “*0.38”.
